Reference: patent US9428472B2, “Methods of treating bacterial infections with 1,2-benzisothiazolinone and isoindolinone derivatives” (GEORGETOWN UNIVERSITY, priority 2011, dated 2016)
≈ marks a conversion by molar mass, not a printed value. Where two headings read alike, the source gives them in different places.

What was measured:
[1] = test system: Enterococcus fecalis 29212; assay: Disc-diffusion method (disc inhibition testing); format: cell-based; details: read-out: Zone diameter
Experimental: (§1) An inoculum of the tested organism was made from an 18-24 h agar plate and was grown overnight to 0.5 McFarland standard. This suspension was then spread on a fresh Mueller-Hinton plate in the following manner: Optimally, within 15 minutes after adjusting the turbidity of the inoculum suspension, a sterile cotton swab was dipped the suspension. The swab was rotated several times and pressed firmly on the inside wall of the tube to remove excess inoculum. The dried surface of the Mueller-Hinton agar plate was then inoculated by streaking the swab over the entire sterile agar surface. Discs of sterile filter paper were inoculated with standard amounts of compounds (5, 10 and 25 microgram) and were dried before application on to the streaked plate. A control disc with the same DMSO % as the test discs were also applied to the plate. The plates were inverted after 15 minutes and were placed in an incubator set to 35° C. After 16-18 h, the plates were examined. The circular zones of inhibition were evaluated by measuring the diameter of the circular margin with no obvious visible growth. The inhibition diameters of standardized drugs against the tested organism were also determined simultaneously and are compared to those mentioned in CLSI M02-A10.

[2] = test system: Enterococcus fecalis 51299 (VRE); assay: Disc-diffusion method (disc inhibition testing); format: cell-based
Experimental: as §1

Group A Streptococci = assay: Disc-diffusion method (disc inhibition testing); format: cell-based; details: read-out: Zone diameter
Experimental: as §1

Micrococcus sp = assay: Disc-diffusion method (disc inhibition testing); format: cell-based; details: read-out: Zone diameter
Experimental: as §1

[3] = test system: Staphylocccus saprophyticus; assay: Disc-diffusion method (disc inhibition testing); format: cell-based; details: read-out: Zone diameter
Experimental: as §1

[4] = test system: Staphylococcus aureus 25923; assay: Disc-diffusion method (disc inhibition testing); format: cell-based; details: read-out: Zone diameter
Experimental: as §1

[5] = test system: Staphylococcus aureus 29213; assay: Disc-diffusion method (disc inhibition testing); format: cell-based; details: read-out: Zone diameter
Experimental: as §1

[6] = test system: Staphylococcus aureus 43300 (MRSA); assay: Disc-diffusion method (disc inhibition testing); format: cell-based
Experimental: as §1

Aeromonas sp = assay: Disc-diffusion method (disc inhibition testing); format: cell-based; details: Conc. 10/25/50 μg
Experimental: as §1, with “Discs of sterile filter paper were inoculated with standard amounts of compounds (5, 10 and 25 microgram) and were dried before application on to the streaked plate.” left out

E. Coli 25922 = assay: Disc-diffusion method (disc inhibition testing); format: cell-based; details: Conc. 10/25/50 μg
Experimental: as §1, with “Discs of sterile filter paper were inoculated with standard amounts of compounds (5, 10 and 25 microgram) and were dried before application on to the streaked plate.” left out

Klebsiella oxytoca = assay: Disc-diffusion method (disc inhibition testing); format: cell-based; details: Conc. 10/25/50 μg
Experimental: as §1, with “Discs of sterile filter paper were inoculated with standard amounts of compounds (5, 10 and 25 microgram) and were dried before application on to the streaked plate.” left out

Klebsiella pnemonia 1705 = assay: Disc-diffusion method (disc inhibition testing); format: cell-based; details: Conc. 10/25/50 μg
Experimental: as §1, with “Discs of sterile filter paper were inoculated with standard amounts of compounds (5, 10 and 25 microgram) and were dried before application on to the streaked plate.” left out

Proteus sp 35651 = assay: Disc-diffusion method (disc inhibition testing); format: cell-based; details: Conc. 10/25/50 μg
Experimental: as §1, with “Discs of sterile filter paper were inoculated with standard amounts of compounds (5, 10 and 25 microgram) and were dried before application on to the streaked plate.” left out

Pseudomonas aeroginosa = assay: Disc-diffusion method (disc inhibition testing); format: cell-based; details: Conc. 10/25/50 μg
Experimental: as §1, with “Discs of sterile filter paper were inoculated with standard amounts of compounds (5, 10 and 25 microgram) and were dried before application on to the streaked plate.” left out

Shigella sp = assay: Disc-diffusion method (disc inhibition testing); format: cell-based; details: Conc. 10/25/50 μg
Experimental: as §1, with “Discs of sterile filter paper were inoculated with standard amounts of compounds (5, 10 and 25 microgram) and were dried before application on to the streaked plate.” left out

Streptococcus pneumoniae = assay: Disc-diffusion method (disc inhibition testing); format: cell-based; details: Conc. 10/25/50 μg
Experimental: as §1, with “Discs of sterile filter paper were inoculated with standard amounts of compounds (5, 10 and 25 microgram) and were dried before application on to the streaked plate.” left out

[7] = test system: Staphylococcus saprophyticus, Staphylococcus aureus, Micrococcus sp., Enterococcus fecalis and Group A Streptococcus; assay: Broth microdilution method, MIC-50 over the tested organisms; format: cell-based
Experimental: (§2) The in vitro toxicity of these compounds was determined by the neutral red (both compounds I-1 and I-2) and MTT (3-(4,5-Dimethylthiazol-2-yl)-2,5-diphenyltetrazolium bromide) assay (compound I-1) in human hepatic cell lines Huh7 and HepG2.
96 well plates were used to determine the MIC-50 endpoints for most fastidious organisms. The tested compounds were diluted in RPMI to 50 microgram/ml and 0.1 ml was added to the first well. Two-fold dilutions were made in subsequent wells in RPMI to get a range of concentrations from 0.1-50 μg/ml. The volume of diluted compound in each well was 100 microliter. Bacteria were grown in Mueller-Hinton Broth from a single colony from a fresh plate of the tested organism. The broth was grown overnight to 0.5 McFarland standard (10^8 cells) and further diluted in RPMI to get a final inoculum concentration of 5×10^5 CFU/mL. 15 minutes after the inoculum had been standardized as described above, 5 μl of this suspension was inoculated to each well containing 0.1 ml of the tested compound. This plate was then kept at 35° C. for 16-20 h in an ambient air incubator. […] The concentration of inoculum suspension was confirmed by replating on to agar plates. […] The endpoints of standardized drugs are also determined simultaneously and were compared to those mentioned in CLSI M07-08.

[8] = test system: Gram-positive bacterial organisms; assay: Screening for antibacterial compounds (disc diffusion method, CSLI M02-A10); format: cell-based
Experimental: as §1

HepG2 = assay: In vitro toxicity, neutral red cell viability and MTT assays; format: cell-based, human
Experimental: as §2
(§3) The neutral red cell viability assay and the MTT assays were conducted with the active compounds at defined concentrations in human hepatoma cell lines, Huh7 and HepG2, as described by Repetto et al (Repetto G, Peso A. D. & Zurita J. L., Neutral red uptake assay for the estimation of cell viability/cytotoxicity, Nature Protocols 3, 1125-1131 (2008)) and Mosmann et al (Mosmann T., Rapid colorimetric assay for cellular growth and survival: application to proliferation and cytotoxicity assays, Journal of Immunological Methods 65 (1-2): 55-63, (December 1983)) respectively. The cell cytotoxicity (CC-50) concentrations were calculated for the HepG2 cell line.

Huh7 = assay: as above; format: cell-based, human
Experimental: as §2, §3

[9] = neutral red (I-1, I-2) and MTT (I-1)

O=C(Cn1sc2ccccc2c1=O)Nc1ccccc1Oc1ccccc1 [Compound I-2]
zone of inhibition at 10 µg/disc ([1]; Conc. 10 μg): 14 mm | zone of inhibition at 25 µg/disc ([1]; Conc. 25 μg): 16 mm | zone of inhibition at 50 µg/disc ([1]; Conc. 50 μg): 18 mm | zone of inhibition at 10 µg/disc ([2]; Enterococcus, VRE, Conc. 10 μg, read-out: Zone diameter): 17 mm | zone of inhibition at 25 µg/disc ([2]; Enterococcus, VRE, Conc. 25 μg, read-out: Zone diameter): 22 mm | zone of inhibition at 50 µg/disc ([2]; Enterococcus, VRE, Conc. 50 μg, read-out: Zone diameter): 24 mm | activity against Enterococcus fecalis ATCC 51299 (VRE) ([2]; method not named): active | zone of inhibition at 10 µg/disc (Group A Streptococci; Conc. 10 μg): 20 mm | zone of inhibition at 25 µg/disc (Group A Streptococci; Conc. 25 μg): 24 mm | zone of inhibition at 50 µg/disc (Group A Streptococci; Conc. 50 μg): 27 mm | zone of inhibition at 10 µg/disc (Micrococcus sp; Conc. 10 μg): 27 mm | zone of inhibition at 25 µg/disc (Micrococcus sp; Conc. 25 μg): 28 mm | zone of inhibition at 50 µg/disc (Micrococcus sp; Conc. 50 μg): 29 mm | zone of inhibition at 10 µg/disc ([3]; Conc. 10 μg): 22 mm | zone of inhibition at 25 µg/disc ([3]; Conc. 25 μg): 24 mm | zone of inhibition at 50 µg/disc ([3]; Conc. 50 μg): 25 mm | zone of inhibition at 10 µg/disc ([4]; Conc. 10 μg): 18 mm | zone of inhibition at 25 µg/disc ([4]; Conc. 25 μg): 21 mm | zone of inhibition at 50 µg/disc ([4]; Conc. 50 μg): 23 mm | zone of inhibition at 10 µg/disc ([5]; Conc. 10 μg): 16 mm | zone of inhibition at 25 µg/disc ([5]; Conc. 25 μg): 18 mm | zone of inhibition at 50 µg/disc ([5]; Conc. 50 μg): 22 mm | zone of inhibition at 10 µg/disc ([6]; Staphylococcus aureus, MRSA, Conc. 10 μg, read-out: Zone diameter): 19 mm | zone of inhibition at 25 µg/disc ([6]; Staphylococcus aureus, MRSA, Conc. 25 μg, read-out: Zone diameter): 19 mm | zone of inhibition at 50 µg/disc ([6]; Staphylococcus aureus, MRSA, Conc. 50 μg, read-out: Zone diameter): 23 mm | activity against Staphylococcus aureus ATCC 43300 (MRSA) ([6]; method not named): active | Zone diameter (Aeromonas sp): NOT ACTIVE | Zone diameter (E. Coli 25922): NOT ACTIVE | Zone diameter (Klebsiella oxytoca): NOT ACTIVE | Zone diameter (Klebsiella pnemonia 1705): NOT ACTIVE | Zone diameter (Proteus sp 35651): NOT ACTIVE | Zone diameter (Pseudomonas aeroginosa): NOT ACTIVE | Zone diameter (Shigella sp): NOT ACTIVE | Zone diameter (Streptococcus pneumoniae): NOT ACTIVE | MIC50 ([7]; range over the five named organisms, read-out: MIC-50 concentrations): 1 to 15 µg/mL (≈ 2.66 to 39.8 µM) | MIC50 ([7]; range over the tested gram positive pathogens, read-out: MIC-50 values): 1 to 15 µg/mL (≈ 2.66 to 39.8 µM) | activity against Staphylococcus saprophyticus, Staphylococcus aureus, Micrococcus sp., Enterococcus fecalis and Group A Streptococcus [8]: showed activity | antibiotic activity against Gram-positive bacterial organisms ([8]; disc diffusion screening): antibiotic activity | concentration up to which no toxicity was shown (HepG2): ≥ 100 microgram/ml | in vitro toxicity (HepG2; [9]): Minimal in vitro toxicity | concentration up to which no toxicity was shown (Huh7): ≥ 100 microgram/ml | in vitro toxicity (Huh7; [9]): Minimal in vitro toxicity
